Measured values published in ChEMBL document CHEMBL6092150, “Exploration of isatin-based inhibitors of SARS-CoV-2 Nsp15 endoribonuclease” (Eur J Med Chem, 2024).
Activity calls are given as the source filed them. No cut-off for these calls is given here.

Tests used:
[1] = Cytotoxicity against human A549 cells by MTS cell viability analysis; type: toxicity, cell-based
[2] = target: Replicase polyprotein 1ab (Severe acute respiratory syndrome coronavirus 2) (UniProt P0DTD1); assay: Effect on SARS-CoV-2 recombinant Nsp15 oligomerization state at 0.1 to 1 mM by Commassie-Native gel electrophoresis; settings: dose 0.1-1 mM
[3] = target: Replicase polyprotein 1ab (Severe acute respiratory syndrome coronavirus 2) (UniProt P0DTD1); assay: Inhibition of SARS-CoV-2 recombinant GST-tagged nsp15 endonuclease activity using 5'-6-FAM-AArUAA-lowa Black FQ-3' as substrate assessed as cleavage of substrate at 100 uM measured every 2 min for 1 hrs by FRET-based Nsp15 EndoU assay relative to control
[4] = target: Replicase polyprotein 1ab (Severe acute respiratory syndrome coronavirus 2, UniProt P0DTD1); assay: (§1) Inhibition of SARS-CoV-2 recombinant GST-tagged nsp15 endonuclease activity using 5'-6-FAM-AArUAA-lowa Black FQ-3' as substrate assessed as cleavage of substrate measured every 2 min for 1 hrs by FRET-based Nsp15 EndoU assay
[5] = target: Replicase polyprotein 1ab (Severe acute respiratory syndrome coronavirus 2) (UniProt P0DTD1); assay: as §1
[6] = test system: Vero C1008; assay: Cytotoxicity against african green monkey Vero E6 cells at 100 uM incubated for 72 hrs by MTT cell viability assay; type: toxicity, cell-based; settings: chlorocebus sabaeus, vero c1008, 72 h
[7] = test system: MRC5; assay: Cytotoxicity against human MRC5 cells at 100 uM incubated for 72 hrs by MTT cell viability assay; type: toxicity, cell-based; settings: mrc5, 72 h

Structure (SMILES)	CC50 [1] [µM]	Activity [2]	inhibition [3] [%]	IC50 [4] [µM]	inhibition [5]	Activity [6]	Activity [7]
N#CC(C#N)=C1C(=O)Nc2c(Br)cc(Br)cc21	134	inactive	68.1	53.5	Dose-dependent-effect	Non-toxic	Non-toxic
N#CC(C#N)=C1C(=O)Nc2ccc(F)cc21	–	–	30.2	236	Dose-dependent-effect	–	–
N#C[C@@]1(c2ccc3c(N)ncnn23)O[C@H](CO)[C@@H](O)[C@H]1O [GS-441524]	> 40	–	–	–	–	–	–
O=C1Nc2ccc([N+](=O)[O-])cc2C1=O [5-NITROISATIN]	–	–	40.7	–	–	Non-toxic	Non-toxic
O=C1Nc2c(Br)cc(Br)cc2C1=O	–	–	58.4	–	–	–	–
O=C1Nc2ccc(Br)cc2C1=O	–	–	32.7	–	–	–	–
O=C1Nc2ccc(I)cc2C1=O	–	–	26.2	–	–	–	–
N#CC(C#N)=C1C(=O)Nc2ccc(Br)cc21	–	–	55.9	82.9	Dose-dependent-effect	–	–
N#CC(C#N)=C1C(=O)Nc2ccc(I)cc21	–	–	32.6	151	Dose-dependent-effect	–	–
N#CC(C#N)=C1C(=O)Nc2ccc([N+](=O)[O-])cc21	189	inactive	61.5	43.5	Dose-dependent-effect	Non-toxic	Non-toxic
O=C1Nc2ccc(F)cc2C1=O	–	–	13.6	–	–	–	–
